From the Kinase Knowledgebase extract (Sharma et al. 2016)

Target: ROCK2 (human) (UniProt O75116)
Experiment: Inhibition of ROCK2 Kinase Activity

ROCK2 (human), sequence (O75116 whole entry, looked up): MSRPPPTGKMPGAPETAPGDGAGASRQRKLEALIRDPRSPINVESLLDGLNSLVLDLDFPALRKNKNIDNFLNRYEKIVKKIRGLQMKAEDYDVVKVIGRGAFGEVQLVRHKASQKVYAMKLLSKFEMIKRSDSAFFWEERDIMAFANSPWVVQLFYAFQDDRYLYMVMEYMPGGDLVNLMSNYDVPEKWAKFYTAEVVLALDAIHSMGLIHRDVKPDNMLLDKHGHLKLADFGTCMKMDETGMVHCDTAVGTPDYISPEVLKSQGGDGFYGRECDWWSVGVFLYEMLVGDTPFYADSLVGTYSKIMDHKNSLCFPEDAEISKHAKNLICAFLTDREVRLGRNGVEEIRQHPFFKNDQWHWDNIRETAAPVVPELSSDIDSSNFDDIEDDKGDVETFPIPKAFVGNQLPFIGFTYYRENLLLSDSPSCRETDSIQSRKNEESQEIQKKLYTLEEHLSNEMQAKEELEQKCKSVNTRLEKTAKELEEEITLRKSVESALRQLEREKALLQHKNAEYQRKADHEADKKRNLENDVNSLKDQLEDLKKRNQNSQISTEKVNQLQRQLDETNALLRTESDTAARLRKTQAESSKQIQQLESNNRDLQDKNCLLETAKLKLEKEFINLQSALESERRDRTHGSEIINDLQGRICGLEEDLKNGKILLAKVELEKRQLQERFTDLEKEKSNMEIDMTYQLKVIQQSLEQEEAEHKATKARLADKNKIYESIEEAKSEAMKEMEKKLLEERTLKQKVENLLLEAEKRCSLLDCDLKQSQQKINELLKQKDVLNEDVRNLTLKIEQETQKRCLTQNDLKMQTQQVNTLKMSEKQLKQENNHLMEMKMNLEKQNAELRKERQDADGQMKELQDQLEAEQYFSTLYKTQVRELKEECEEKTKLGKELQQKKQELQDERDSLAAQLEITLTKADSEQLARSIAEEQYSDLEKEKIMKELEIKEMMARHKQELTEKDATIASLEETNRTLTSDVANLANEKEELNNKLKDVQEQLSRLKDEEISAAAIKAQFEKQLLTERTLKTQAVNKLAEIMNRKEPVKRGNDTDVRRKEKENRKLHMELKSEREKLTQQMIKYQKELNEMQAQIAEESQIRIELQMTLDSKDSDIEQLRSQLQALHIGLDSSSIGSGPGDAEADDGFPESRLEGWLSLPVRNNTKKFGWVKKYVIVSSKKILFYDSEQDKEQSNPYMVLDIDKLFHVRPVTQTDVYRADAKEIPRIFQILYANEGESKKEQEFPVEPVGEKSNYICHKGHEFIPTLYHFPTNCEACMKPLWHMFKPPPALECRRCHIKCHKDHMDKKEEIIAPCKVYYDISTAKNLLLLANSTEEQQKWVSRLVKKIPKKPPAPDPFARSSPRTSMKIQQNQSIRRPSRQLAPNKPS

CC(C)N1CCN(C(=O)CC(N)c2ccc(C(=O)Nc3ccncc3)cc2)CC1 (stereo not given) and NC(CC(=O)N1CCCCC1)c1ccc(C(=O)Nc2ccncc2)cc1 (stereo not given) cannot be ordered by IC50: under 0.5 µM for the first, under 0.5 µM for the second.

First: NC(CC(=O)N1CC=C(c2ccc(F)cc2)CC1)c1ccc(C(=O)Nc2ccncc2)cc1 (stereo not given)
Second: NC(C(=O)N1CC=C(c2ccc(F)cc2)CC1)c1ccc(C(=O)Nc2ccncc2)cc1 (stereo not given)
The IC50 of the first is lower: under 0.5 µM for the first, 0.5 to 5 µM for the second. The first is the more potent here.

First: NC(C(=O)Nc1ccccc1)c1ccc(C(=O)Nc2ccncc2)cc1 (stereo not given)
Second: N[C@H](C(=O)NCc1ccccc1)c1ccc(C(=O)Nc2ccncc2)cc1
The IC50 of the first is higher: 0.5 to 5 µM for the first, under 0.5 µM for the second.

NC(C(=O)NCc1ccccc1Cl)c1ccc(C(=O)Nc2ccncc2)cc1 (stereo not given) and NC(C(=O)NCc1cccc(Cl)c1)c1ccc(C(=O)Nc2ccncc2)cc1 (stereo not given) cannot be ordered by IC50: under 0.5 µM for the first, under 0.5 µM for the second.

First: NC(CC(=O)N1CCCC(CO)C1)c1ccc(C(=O)Nc2ccncc2)cc1 (stereo not given)
Second: NC(C(=O)N1CCCC(CO)C1)c1ccc(C(=O)Nc2ccncc2)cc1 (stereo not given)
The IC50 of the first is lower: under 0.5 µM for the first, 0.5 to 5 µM for the second.

NC(CC(=O)N1CCc2ccccc2C1)c1ccc(C(=O)Nc2ccncc2)cc1 (stereo not given) and NC(CC(=O)N1CCN(c2ccccc2)CC1)c1ccc(C(=O)Nc2ccncc2)cc1 (stereo not given) cannot be ordered by IC50: under 0.5 µM for the first, under 0.5 µM for the second.

NC(C(=O)NCc1ccncc1)c1ccc(C(=O)Nc2ccncc2)cc1 (stereo not given) and NC(C(=O)NCc1ccccn1)c1ccc(C(=O)Nc2ccncc2)cc1 (stereo not given) fall in the same range of IC50: 0.5 to 5 µM for the first, 0.5 to 5 µM for the second.

NC(CNS(=O)(=O)c1ccc(Cl)cc1)c1ccc(C(=O)Nc2ccncc2)cc1 (stereo not given) and Cc1ccc(S(=O)(=O)NCC(N)c2ccc(C(=O)Nc3ccncc3)cc2)cc1 (stereo not given) cannot be ordered by IC50: under 0.5 µM for the first, under 0.5 µM for the second.

NC(CC(=O)N1CCCCC1c1ccc(Cl)cc1)c1ccc(C(=O)Nc2ccncc2)cc1 (stereo not given) and NC(CC(=O)N1CCCCC1c1ccc(F)cc1)c1ccc(C(=O)Nc2ccncc2)cc1 (stereo not given) cannot be ordered by IC50: under 0.5 µM for the first, under 0.5 µM for the second.

First: NC(C(=O)N1CCN(CCO)CC1)c1ccc(C(=O)Nc2ccncc2)cc1 (stereo not given)
Second: NC(C(=O)N1CCOCC1)c1ccc(C(=O)Nc2ccncc2)cc1 (stereo not given)
The IC50 of the first is higher: 0.5 to 5 µM for the first, under 0.5 µM for the second.

Compared with CCCCCCCCS(=O)(=O)NCC(N)c1ccc(C(=O)Nc2ccncc2)cc1 (stereo not given), CCCCS(=O)(=O)NCC(N)c1ccc(C(=O)Nc2ccncc2)cc1 (stereo not given) is lower in IC50: 0.5 to 5 µM for the first, under 0.5 µM for the second.

NC(CC(=O)N1CCCC1c1cccc(Cl)c1)c1ccc(C(=O)Nc2ccncc2)cc1 (stereo not given) and N[C@H](CC(=O)N1CCC[C@@H]1c1cccc(F)c1)c1ccc(C(=O)Nc2ccncc2)cc1 cannot be ordered by IC50: under 0.5 µM for the first, under 0.5 µM for the second.

First: CC1CCN(C(=O)C(N)c2ccc(C(=O)Nc3ccncc3)cc2)CC1 (stereo not given)
Second: NC(C(=O)NCC1CC1)c1ccc(C(=O)Nc2ccncc2)cc1 (stereo not given)
The IC50 of the first is lower: under 0.5 µM for the first, 0.5 to 5 µM for the second. The first is the more potent here.

COc1ccc(S(=O)(=O)NCC(N)c2ccc(C(=O)Nc3ccncc3)cc2)cc1OC (stereo not given) and COc1ccc(OC)c(S(=O)(=O)NCC(N)c2ccc(C(=O)Nc3ccncc3)cc2)c1 (stereo not given) cannot be ordered by IC50: under 0.5 µM for the first, under 0.5 µM for the second.

First: CCCCNNC(=O)C(N)c1ccc(C(=O)Nc2ccncc2)cc1 (stereo not given)
Second: CONC(=O)C(N)c1ccc(C(=O)Nc2ccncc2)cc1 (stereo not given)
The IC50 of the first is lower: under 0.5 µM for the first, 0.5 to 5 µM for the second. The first is the more potent here.

CC1CC(C)CN(C(=O)CC(N)c2ccc(C(=O)Nc3ccncc3)cc2)C1 (stereo not given) and NC(CC(=O)N1CCSC1)c1ccc(C(=O)Nc2ccncc2)cc1 (stereo not given) cannot be ordered by IC50: under 0.5 µM for the first, under 0.5 µM for the second.

NC(C(=O)N1CCN(c2ccccc2)CC1)c1ccc(C(=O)Nc2ccncc2)cc1 (stereo not given) and COc1ccc(CN2CCN(C(=O)C(N)c3ccc(C(=O)Nc4ccncc4)cc3)CC2)cc1 (stereo not given) fall in the same range of IC50: 0.5 to 5 µM for the first, 0.5 to 5 µM for the second.

First: Cc1nn(C)c(Cl)c1S(=O)(=O)NCC(N)c1ccc(C(=O)Nc2ccncc2)cc1 (stereo not given)
Second: Cc1noc(C)c1S(=O)(=O)NCC(N)c1ccc(C(=O)Nc2ccncc2)cc1 (stereo not given)
The IC50 of the first is higher: 0.5 to 5 µM for the first, under 0.5 µM for the second.

COc1ccc(S(=O)(=O)NCC(N)c2ccc(C(=O)Nc3ccncc3)cc2)cc1 (stereo not given) and COc1ccc(S(=O)(=O)N(C)C[C@@H](N)c2ccc(C(=O)Nc3ccncc3)cc2)cc1 cannot be ordered by IC50: under 0.5 µM for the first, under 0.5 µM for the second.

NC(C(=O)NC1CCCCC1)c1ccc(C(=O)Nc2ccncc2)cc1 (stereo not given) and Cc1ccc(CN2CCC(NC(=O)C(N)c3ccc(C(=O)Nc4ccncc4)cc3)CC2)s1 (stereo not given) fall in the same range of IC50: 0.5 to 5 µM for the first, 0.5 to 5 µM for the second.

First: NC(CNS(=O)(=O)c1ccccc1)c1ccc(C(=O)Nc2ccncc2)cc1 (stereo not given)
Second: CN(CC(N)c1ccc(C(=O)Nc2ccncc2)cc1)S(=O)(=O)c1ccccc1 (stereo not given)
The IC50 of the first is lower: under 0.5 µM for the first, 0.5 to 5 µM for the second.

NC(CC(=O)N1CCC(Cc2ccccc2)CC1)c1ccc(C(=O)Nc2ccncc2)cc1 (stereo not given) and NC(CC(=O)N1CCC(c2c[nH]c3ccccc23)CC1)c1ccc(C(=O)Nc2ccncc2)cc1 (stereo not given) cannot be ordered by IC50: under 0.5 µM for the first, under 0.5 µM for the second.

NC(CC(=O)N1CCCCC1c1cc(Cl)ccc1Cl)c1ccc(C(=O)Nc2ccncc2)cc1 (stereo not given) and COc1ccc(Cl)cc1C1CCCCN1C(=O)CC(N)c1ccc(C(=O)Nc2ccncc2)cc1 (stereo not given) cannot be ordered by IC50: under 0.5 µM for the first, under 0.5 µM for the second.

COc1ccc(CNC(=O)C(N)c2ccc(C(=O)Nc3ccncc3)cc2)cc1 (stereo not given) and NC(C(=O)NCCc1ccc(F)cc1)c1ccc(C(=O)Nc2ccncc2)cc1 (stereo not given) cannot be ordered by IC50: under 0.5 µM for the first, under 0.5 µM for the second.

NC(CNS(=O)(=O)c1cccc(-c2ccccc2)c1)c1ccc(C(=O)Nc2ccncc2)cc1 (stereo not given) and NC(CNS(=O)(=O)c1cccc(Oc2ccccc2)c1)c1ccc(C(=O)Nc2ccncc2)cc1 (stereo not given) fall in the same range of IC50: 0.5 to 5 µM for the first, 0.5 to 5 µM for the second.

NC(CC(=O)N1CCN(C(=O)c2ccco2)CC1)c1ccc(C(=O)Nc2ccncc2)cc1 (stereo not given) and NC(CC(=O)N1CCN(Cc2ccccc2F)CC1)c1ccc(C(=O)Nc2ccncc2)cc1 (stereo not given) cannot be ordered by IC50: under 0.5 µM for the first, under 0.5 µM for the second.

First: CN(CCO)C(=O)C(N)c1ccc(C(=O)Nc2ccncc2)cc1 (stereo not given)
Second: CN(Cc1ccccc1)C(=O)C(N)c1ccc(C(=O)Nc2ccncc2)cc1 (stereo not given)
The IC50 of the first is higher: 0.5 to 5 µM for the first, under 0.5 µM for the second. The second is the more potent here.

CN(CC(N)c1ccc(C(=O)Nc2ccncc2)cc1)S(=O)(=O)c1cccc(F)c1 (stereo not given) and CN(CC(N)c1ccc(C(=O)Nc2ccncc2)cc1)S(=O)(=O)c1ccccc1Cl (stereo not given) fall in the same range of IC50: 0.5 to 5 µM for the first, 0.5 to 5 µM for the second.

First: CCCS(=O)(=O)NCC(N)c1ccc(C(=O)Nc2ccncc2)cc1 (stereo not given)
Second: CCC(C)(C)NC(=O)C(N)c1ccc(C(=O)Nc2ccncc2)cc1 (stereo not given)
The IC50 of the first is lower: under 0.5 µM for the first, 0.5 to 5 µM for the second.

NC(CC(=O)N1CCC(c2nc3ccccc3o2)CC1)c1ccc(C(=O)Nc2ccncc2)cc1 (stereo not given) and NC(CC(=O)N1CCOCC1c1ccccc1)c1ccc(C(=O)Nc2ccncc2)cc1 (stereo not given) cannot be ordered by IC50: under 0.5 µM for the first, under 0.5 µM for the second.

Compared with NC(CNS(=O)(=O)c1ccc(Oc2ccccc2)cc1)c1ccc(C(=O)Nc2ccncc2)cc1 (stereo not given), COc1ccc(S(=O)(=O)N(C)CC(N)c2ccc(C(=O)Nc3ccncc3)cc2)cc1 (stereo not given) is lower in IC50: 0.5 to 5 µM for the first, under 0.5 µM for the second. The second is the more potent here.

NC(CC(=O)N1CCCCC1c1cccc2ccccc12)c1ccc(C(=O)Nc2ccncc2)cc1 (stereo not given) and COc1cccc(C2CCCCN2C(=O)CC(N)c2ccc(C(=O)Nc3ccncc3)cc2)c1 (stereo not given) cannot be ordered by IC50: under 0.5 µM for the first, under 0.5 µM for the second.

CC(NC(=O)C(N)c1ccc(C(=O)Nc2ccncc2)cc1)c1ccccc1 (stereo not given) and CCC(NC(=O)C(N)c1ccc(C(=O)Nc2ccncc2)cc1)c1ccccc1 (stereo not given) cannot be ordered by IC50: under 0.5 µM for the first, under 0.5 µM for the second.

COCC(C)NC(=O)C(N)c1ccc(C(=O)Nc2ccncc2)cc1 (stereo not given) and NC(C(=O)NCCn1ccnc1)c1ccc(C(=O)Nc2ccncc2)cc1 (stereo not given) fall in the same range of IC50: 0.5 to 5 µM for the first, 0.5 to 5 µM for the second.

NC(CC(=O)N1CCCC1c1cc(F)ccc1F)c1ccc(C(=O)Nc2ccncc2)cc1 (stereo not given) and NC(CC(=O)N1CCCC1c1ccc(F)cc1F)c1ccc(C(=O)Nc2ccncc2)cc1 (stereo not given) cannot be ordered by IC50: under 0.5 µM for the first, under 0.5 µM for the second.

NC(c1ccc(C(=O)Nc2ccncc2)cc1)C1CCCN1S(=O)(=O)c1cccc(F)c1 (stereo not given) and NC(c1ccc(C(=O)Nc2ccncc2)cc1)C1CCCN1S(=O)(=O)c1ccccc1Cl (stereo not given) fall in the same range of IC50: 0.5 to 5 µM for the first, 0.5 to 5 µM for the second.

First: COc1ccc(C2c3[nH]c4ccccc4c3CCN2C(=O)CC(N)c2ccc(C(=O)Nc3ccncc3)cc2)cc1Br (stereo not given)
Second: NC(CC(=O)N1CCOCC1c1ccc(F)cc1)c1ccc(C(=O)Nc2ccncc2)cc1 (stereo not given)
The IC50 of the first is higher: 0.5 to 5 µM for the first, under 0.5 µM for the second.

NC(CC(=O)N1CCCC2CCCCC21)c1ccc(C(=O)Nc2ccncc2)cc1 (stereo not given) and NC(CC(=O)N1CCOCC1c1ccc(Cl)cc1)c1ccc(C(=O)Nc2ccncc2)cc1 (stereo not given) cannot be ordered by IC50: under 0.5 µM for the first, under 0.5 µM for the second.

Compared with COc1ccc(S(=O)(=O)N(C)C[C@H](N)c2ccc(C(=O)Nc3ccncc3)cc2)cc1, COc1ccc(S(=O)(=O)N2CCCC2C(N)c2ccc(C(=O)Nc3ccncc3)cc2)cc1 (stereo not given) is lower in IC50: 5 to 50 µM for the first, 0.5 to 5 µM for the second. The second is the more potent here.

First: NC(C(=O)NC1CCN(Cc2ccccc2)CC1)c1ccc(C(=O)Nc2ccncc2)cc1 (stereo not given)
Second: NC(C(=O)NCCc1ccccc1)c1ccc(C(=O)Nc2ccncc2)cc1 (stereo not given)
The IC50 of the first is higher: 0.5 to 5 µM for the first, under 0.5 µM for the second. The second is the more potent here.
